In paper PMC12587545, “Noncytotoxic polymyxin derivatives enhance antibiotic action against multidrug-resistant Gram-negative bacteria” (Antimicrobial Agents and Chemotherapy, 2025):
Values joined by “and” are separate entries in the source; they are usually repeats but may differ in a detail not shown here. Identical values can stand only once.

Columns and labels:
P. aeruginosa = experiment: Checkerboard assay (antibiotic potentiation); format: cell-based, Pseudomonas aeruginosa; conditions: for MICantibiotic: antibiotic alone
Protocol: (§1) The interaction between the compounds and the antibiotics was evaluated using the fractional inhibitory concentration (FIC) index. FIC indices of ≤0.5 is synergistic, 0.5 < × ≤ 4 is additive, whereas >4 is antagonistic ([34]).
(§2) Synergy was measured by the FIC index, which is the summation of the individual FICs of the antibiotic and the compound. The FIC is calculated by dividing the MIC of one agent in the presence of another by the MIC of the agent alone. […] The FBS studies were conducted by following a previously published protocol ([29], [50]). The FBS was inactivated by heating at 56°C for 30 min with constant swirling.

A. baumannii = experiment: Checkerboard assay (antibiotic potentiation); format: cell-based, Acinetobacter baumannii; design: key to FIC index: sum of FICs; ≤0.5 synergistic, 0.5–4 additive, >4 antagonistic; conditions: for MICantibiotic: antibiotic alone
Protocol: (§3) The interaction between the compounds and the antibiotics was evaluated using the fractional inhibitory concentration (FIC) index. FIC indices of ≤0.5 is synergistic, 0.5 < × ≤ 4 is additive, whereas >4 is antagonistic ([34]). […] .
(§4) The bacterial isolates were acquired from ATCC or the Canadian Ward Surveillance (CANWARD) study ([56]). CANWARD isolates were collected from infected patients admitted to participating medical centers across Canada.
(§5) The antibiotic and compounds were serially diluted 2-fold in CAMHB along the x- and y-axis, respectively, on a 96-well plate that was subsequently incubated with equal volumes of bacterial inoculum overnight at 37°C. Wells containing only media were used as negative controls, and wells containing only bacteria were used as positive controls. Synergy was measured by the FIC index, which is the summation of the individual FICs of the antibiotic and the compound. The FIC is calculated by dividing the MIC of one agent in the presence of another by the MIC of the agent alone. Turbidity was confirmed with a Molecular Devices (United States) EMax Plus microplate reader at a wavelength of 590 nm. The FBS studies were conducted by following a previously published protocol ([29], [50]). The FBS was inactivated by heating at 56°C for 30 min with constant swirling.

E. coli = experiment: Checkerboard assay (antibiotic potentiation); format: cell-based, Escherichia coli; conditions: for MICantibiotic + compound: antibiotic MIC with 8 µg/mL (5 µM) compound 1; for MICantibiotic: antibiotic alone; for Potentiation: of antibiotic by 8 µg/mL (5 µM) compound 1
Protocol: as §1, §2

K. pneumoniae = experiment: Checkerboard assay (antibiotic potentiation); format: cell-based, Klebsiella pneumoniae; conditions: for Interpretation: antibiotic + compound 1; for MICantibiotic + compound: antibiotic MIC with 8 µg/mL (5 µM) compound 1; for MICantibiotic: antibiotic alone; for Potentiation: of antibiotic by 8 µg/mL (5 µM) compound 1
Protocol: as §1, §2

E. cloacae = experiment: Checkerboard assay (antibiotic potentiation); format: cell-based, Enterobacter cloacae; conditions: E. cloacae 121887 (colistin-resistant)
Protocol: as §3, §4, §5

[1] = test system: MDR Gram-negative bacteria clinical isolates; experiment: Checkerboard assay, summary over strains; format: cell-based; conditions: of all 14 clinical isolates; number (%)
Protocol: as §1, §5

[2] = P. aeruginosa 262-101856, antibiotic + compound 1
[3] = A. baumannii 110193, antibiotic + compound 1
[4] = A. baumannii ATCC 17978, antibiotic + compound 1
[5] = E. coli 94393 (colistin-resistant)
[6] = E. coli 94474 (colistin-resistant)
[7] = K. pneumoniae 113250 (colistin-resistant)

MICantibiotic + compound (P. aeruginosa; P. aeruginosa 259-96916, antibiotic MIC with 8 µg/mL (5 µM) compound 1): 16 µg/mL
MICantibiotic (P. aeruginosa; P. aeruginosa 259-96916): 512 µg/mL
MICantibiotic + compound (P. aeruginosa; P. aeruginosa 262-101856, antibiotic MIC with 8 µg/mL (5 µM) compound 1): 4 µg/mL
MICantibiotic (P. aeruginosa; P. aeruginosa 262-101856): >64 µg/mL
MICantibiotic + compound (P. aeruginosa; P. aeruginosa 264-105354, antibiotic MIC with 8 µg/mL (5 µM) compound 1): 4 µg/mL
MICantibiotic (P. aeruginosa; P. aeruginosa 264-105354): 64 µg/mL
MICantibiotic + compound (P. aeruginosa; P. aeruginosa 101243 (colistin-resistant), antibiotic MIC with 8 µg/mL (5 µM) compound 1): 16 µg/mL
MICantibiotic (P. aeruginosa; P. aeruginosa 101243 (colistin-resistant)): 128 µg/mL
MICantibiotic + compound (P. aeruginosa; P. aeruginosa 114228 (colistin-resistant), antibiotic MIC with 8 µg/mL (5 µM) compound 1): 2 µg/mL
MICantibiotic (P. aeruginosa; P. aeruginosa 114228 (colistin-resistant)): 2 µg/mL
MICantibiotic + compound (P. aeruginosa; P. aeruginosa PAO1, antibiotic MIC with 8 µg/mL (5 µM) compound 1): 0.125 µg/mL
MICantibiotic + compound (P. aeruginosa; P. aeruginosa PAO1, antibiotic MIC with 8 µg/mL (5 µM) compound 3): 1 µg/mL
MICantibiotic (P. aeruginosa; P. aeruginosa PAO1): 1 µg/mL and 0.5 µg/mL
MICantibiotic + compound (A. baumannii; A. baumannii 92247 (colistin-resistant), antibiotic MIC with 4 µg/mL (2 µM) compound 1): 0.063 µg/mL
MICantibiotic (A. baumannii; A. baumannii 92247 (colistin-resistant)): 0.063 µg/mL
MICantibiotic + compound (A. baumannii; A. baumannii 110193, antibiotic MIC with 4 µg/mL (2 µM) compound 1): 0.25 µg/mL
MICantibiotic (A. baumannii; A. baumannii 110193): 0.25 µg/mL
MICantibiotic + compound (A. baumannii; A. baumannii AB027, antibiotic MIC with 4 µg/mL (2 µM) compound 1): 4 µg/mL
MICantibiotic (A. baumannii; A. baumannii AB027): 8 µg/mL
MICantibiotic + compound (A. baumannii; A. baumannii AB031, antibiotic MIC with 4 µg/mL (2 µM) compound 1): 0.125 µg/mL
MICantibiotic (A. baumannii; A. baumannii AB031): 0.25 µg/mL
MICantibiotic + compound (A. baumannii; A. baumannii ATCC 17978, antibiotic MIC with 8 µg/mL (5 µM) compound 3): 0.125 µg/mL
MICantibiotic + compound (A. baumannii; A. baumannii ATCC 17978, antibiotic MIC with ¼ MIC (≤5 µM) of compound 1): 0.063 µg/mL
MICantibiotic (A. baumannii; A. baumannii ATCC 17978): 0.125 µg/mL
MICantibiotic + compound (E. coli; [5]): 1 µg/mL
MICantibiotic (E. coli; [5]): >2 µg/mL
MICantibiotic + compound (E. coli; [6]): 8 µg/mL
MICantibiotic (E. coli; [6]): 16 µg/mL
MICantibiotic + compound (K. pneumoniae; [7]): 0.063 µg/mL
MICantibiotic (K. pneumoniae; [7]): 0.063 µg/mL
MICantibiotic + compound (K. pneumoniae; K. pneumoniae 116381): 4 µg/mL
MICantibiotic (K. pneumoniae; K. pneumoniae 116381): 256 µg/mL
MICantibiotic + compound (E. cloacae; antibiotic MIC with 8 µg/mL (5 µM) compound 1): 16 µg/mL
MICantibiotic (E. cloacae; antibiotic alone): 16 µg/mL
Compound: C[C@H]1COc2c(N3CCN(C)CC3)c(F)cc3c(=O)c(C(=O)O)cn1c23 [Levofloxacin]
Interpretation (P. aeruginosa; P. aeruginosa 259-96916, antibiotic + compound 1): Synergy (FIC indices of ≤0.5 is synergistic)
Potentiation (P. aeruginosa; P. aeruginosa 259-96916, of antibiotic by 8 µg/mL (5 µM) compound 1): 32 fold
FIC index (P. aeruginosa; [2]): x < 0.125
Interpretation (P. aeruginosa; [2]): Synergy (FIC indices of ≤0.5 is synergistic)
Potentiation (P. aeruginosa; P. aeruginosa 262-101856, of antibiotic by 8 µg/mL (5 µM) compound 1): ≥32-fold
Interpretation (P. aeruginosa; P. aeruginosa 264-105354, antibiotic + compound 1): Synergy (FIC indices of ≤0.5 is synergistic)
Potentiation (P. aeruginosa; P. aeruginosa 264-105354, of antibiotic by 8 µg/mL (5 µM) compound 1): 16 fold
Interpretation (P. aeruginosa; P. aeruginosa 101243 (colistin-resistant), antibiotic + compound 1): Synergy (FIC indices of ≤0.5 is synergistic)
Potentiation (P. aeruginosa; P. aeruginosa 101243 (colistin-resistant), of antibiotic by 8 µg/mL (5 µM) compound 1): 8 fold
Interpretation (P. aeruginosa; P. aeruginosa 114228 (colistin-resistant), antibiotic + compound 1): Additive (0.5 < × ≤ 4 is additive)
Potentiation (P. aeruginosa; P. aeruginosa 114228 (colistin-resistant), of antibiotic by 8 µg/mL (5 µM) compound 1): 1 fold
Interpretation (P. aeruginosa; P. aeruginosa PAO1, antibiotic + compound 1): Synergy (FIC indices of ≤0.5 is synergistic)
Interpretation (P. aeruginosa; P. aeruginosa PAO1, antibiotic + compound 3): Additive (0.5 < × ≤ 4 is additive)
Potentiation (P. aeruginosa; P. aeruginosa PAO1, of antibiotic by 8 µg/mL (5 µM) compound 1): 4 fold
Potentiation (P. aeruginosa; P. aeruginosa PAO1, of antibiotic by 8 µg/mL (5 µM) compound 3): 1 fold
Interpretation (A. baumannii; A. baumannii 92247 (colistin-resistant), antibiotic + compound 1): Additive (0.5 < × ≤ 4 is additive)
Potentiation (A. baumannii; A. baumannii 92247 (colistin-resistant), of antibiotic by 4 µg/mL (2 µM) compound 1): 1 fold
FIC index (A. baumannii; [3]): 1.125
Interpretation (A. baumannii; [3]): Additive (0.5 < × ≤ 4 is additive)
Potentiation (A. baumannii; A. baumannii 110193, of antibiotic by 4 µg/mL (2 µM) compound 1): 1 fold
Interpretation (A. baumannii; A. baumannii AB027, antibiotic + compound 1): Additive (0.5 < × ≤ 4 is additive)
Potentiation (A. baumannii; A. baumannii AB027, of antibiotic by 4 µg/mL (2 µM) compound 1): 2 fold
Interpretation (A. baumannii; A. baumannii AB031, antibiotic + compound 1): Additive (0.5 < × ≤ 4 is additive)
Potentiation (A. baumannii; A. baumannii AB031, of antibiotic by 4 µg/mL (2 µM) compound 1): 2 fold
FIC index (A. baumannii; [4]): 0.650
Interpretation (A. baumannii; [4]): Additive (0.5 < × ≤ 4 is additive)
Interpretation (A. baumannii; A. baumannii ATCC 17978, antibiotic + compound 3): Additive (0.5 < × ≤ 4 is additive)
Potentiation (A. baumannii; A. baumannii ATCC 17978, of antibiotic by 8 µg/mL (5 µM) compound 3): 1 fold
Potentiation (A. baumannii; A. baumannii ATCC 17978, of antibiotic by ¼ MIC (≤5 µM) of compound 1): 2 fold
FIC index (E. coli; E. coli 94393 (colistin-resistant), antibiotic + compound 1): x < 0.563
Potentiation (E. coli; [5]): ≥4-fold
Interpretation (E. coli; E. coli 94474 (colistin-resistant), antibiotic + compound 1): Additive (0.5 < × ≤ 4 is additive)
Potentiation (E. coli; [6]): 2 fold
Interpretation (K. pneumoniae; [7]): Additive (0.5 < × ≤ 4 is additive)
Potentiation (K. pneumoniae; [7]): 1 fold
Interpretation (K. pneumoniae; K. pneumoniae 116381): Synergy (FIC indices of ≤0.5 is synergistic)
Potentiation (K. pneumoniae; K. pneumoniae 116381): 64 fold
Interpretation (E. cloacae; antibiotic + compound 1): Additive (0.5 < × ≤ 4 is additive)
Potentiation (E. cloacae; of antibiotic by 8 µg/mL (5 µM) compound 1): 1 fold
clinical isolates in which the antibiotic was synergized by compound 1 [1]: 5 (36%) strains
